Assay results published in US20260132127A1, “NOVEL SPIRO COMPOUND” (MITSUBISHI TANABE PHARMA CORPORATION, priority 2021, published 2026).

Biological target: T1, human TRH-DE (Homo sapiens, UniProt Q9UKU6)
T1 construct: expressed in transfected cells; host or cells: Expi 293 cells (transient expression), membrane fraction
T1 sequence (Q9UKU6 1-1069): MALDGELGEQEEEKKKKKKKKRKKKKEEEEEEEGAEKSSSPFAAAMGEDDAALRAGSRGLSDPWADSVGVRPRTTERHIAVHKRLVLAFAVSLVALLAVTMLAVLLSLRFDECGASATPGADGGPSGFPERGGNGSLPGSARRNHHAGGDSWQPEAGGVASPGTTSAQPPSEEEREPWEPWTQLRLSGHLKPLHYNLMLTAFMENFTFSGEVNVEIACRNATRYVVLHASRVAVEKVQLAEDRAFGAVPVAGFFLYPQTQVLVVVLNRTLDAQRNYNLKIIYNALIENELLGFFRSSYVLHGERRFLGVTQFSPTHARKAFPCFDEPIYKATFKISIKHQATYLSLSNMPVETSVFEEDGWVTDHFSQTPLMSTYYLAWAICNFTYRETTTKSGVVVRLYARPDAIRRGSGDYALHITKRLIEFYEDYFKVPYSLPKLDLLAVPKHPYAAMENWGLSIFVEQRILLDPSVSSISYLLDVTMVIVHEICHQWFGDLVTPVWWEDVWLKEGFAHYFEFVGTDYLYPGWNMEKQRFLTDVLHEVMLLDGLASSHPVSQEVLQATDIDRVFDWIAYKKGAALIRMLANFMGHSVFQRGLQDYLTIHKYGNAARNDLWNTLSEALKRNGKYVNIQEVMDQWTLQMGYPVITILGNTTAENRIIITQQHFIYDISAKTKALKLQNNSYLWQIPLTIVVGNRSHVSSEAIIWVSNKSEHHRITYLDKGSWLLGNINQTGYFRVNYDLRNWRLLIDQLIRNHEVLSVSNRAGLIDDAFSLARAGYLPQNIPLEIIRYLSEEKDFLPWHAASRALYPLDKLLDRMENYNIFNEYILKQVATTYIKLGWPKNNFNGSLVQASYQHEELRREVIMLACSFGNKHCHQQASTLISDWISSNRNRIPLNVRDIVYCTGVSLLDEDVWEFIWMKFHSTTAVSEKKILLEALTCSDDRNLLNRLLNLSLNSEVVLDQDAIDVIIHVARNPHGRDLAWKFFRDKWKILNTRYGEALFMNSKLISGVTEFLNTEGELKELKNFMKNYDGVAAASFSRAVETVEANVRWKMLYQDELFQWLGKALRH
Experiment: TRH-DE inhibition test (RapidFire MS measurement of product Cyclo (His-Pro))
Format: biochemical
Conditions: membrane fraction of Expi 293 cells expressing human TRH-DE; 10 μM TRH substrate; room temperature, 2 hours; 16-point concentration test
Protocol: The compounds described in “1. […] The enzyme inhibitory activity of each of the compounds was evaluated by measuring the amount of the product Cyclo (His-Pro) of the enzyme reaction using a RapidFire RF 365 HTMS system (manufactured by Agilent Technologies, Inc.) connected to a triple quadrupole mass spectrometer (API 4000, manufactured by SCIEX). A membrane fraction prepared from Expi 293 cells transiently expressing human TRH-DE was used as an enzyme. The membrane fraction was suspended in 4 μg/ml of a reaction buffer (50 mM sodium phosphate (pH 7.4), 25 mM NaCl, 0.01% Triton […], and 200 μM bacitracin) and mixed with the test compound at each concentration. 10 μM […]), which was a substrate, was added, and the mixture was reacted at room temperature for 2 hours. The reaction was stopped in the same amount of a solution of acetonitrile:methanol (1:1) containing 1 μM of the stable isotope Cyclo ([…]) as an internal standard, and the supernatant was collected after centrifugation. In the RapidFire RF 365 HTMS system, a portion of the supernatant was aspirated, loaded onto a Graphic Carbon column (manufactured by Agilent Technologies, Inc.) with a buffer A (water, 0.09% formic acid, 0.01% trifluoroacetic acid) and washed with ultrapure water. Next, washing was performed with acetonitrile. The contents in the column were eluted with a buffer B (80% acetonitrile, 0.09% formic acid, 0.01% trifluoroacetic acid) and injected into a mass spectrometer for analysis. […] The ESI voltage was set to 5,500 V and the temperature was set to 650° C. For the calculation of the inhibition rate, a Ratio value corrected by dividing the product amount by the internal standard amount was used. The inhibition rate (%) was calculated by % Inhibition={1-(Ratio value of sample-Ratio value of blank)/(Ratio value of control-Ratio value of blank)}×100. The IC50 value was calculated from the concentration reactivity test at 16 points.

IC50 [nM]	SMILES
1	C[C@@H]1COc2cc(N3CCC(C(F)(F)F)C3)ncc2C(=O)N1C1CC2(C1)CN(S(=O)(=O)c1ccccc1F)C2 (mixture of isomers) [Example 145]
1	C[C@@H]1COc2cc(N3CCCC3C(F)(F)F)ncc2C(=O)N1C1CC2(C1)CN(S(=O)(=O)c1ccccc1F)C2 (mixture of isomers) [Example 146]
1	CC1CCCN(c2cc3c(cn2)C(=O)N(C2CC4(C2)CN(S(=O)(=O)c2ccccc2F)C4)[C@H](C)CO3)C1 (mixture of isomers) [Example 152]
13	C[C@@H]1COc2nc(N3CCOC(C(F)(F)F)C3)ncc2C(=O)N1C1CC2(C1)CN(S(=O)(=O)c1ccccc1F)C2 (mixture of isomers) [Example 385]
13	CC1CN(c2ncc3c(n2)OC[C@@H](C)N(C2CC4(C2)CN(S(=O)(=O)c2ccccc2F)C4)C3=O)CCO1 (mixture of isomers) [Example 386]
3	C[C@@H]1COc2nc(N3CCC4(CCOC4)C3)ncc2C(=O)N1C1CC2(C1)CN(S(=O)(=O)c1ccccc1F)C2 (mixture of isomers) [Example 405]
6	C[C@@H]1COc2nc(N3CCCC34CCOC4)ncc2C(=O)N1C1CC2(C1)CN(S(=O)(=O)c1ccccc1F)C2 (mixture of isomers) [Example 406]
1010	CC1CN(C2CC3(C2)CN(S(=O)(=O)c2ccccc2F)C3)C(=O)c2ncccc2O1 (racemic) [Example 2]
14	CC1COc2ccc(F)nc2C(=O)N1C1CC2(C1)CN(S(=O)(=O)c1ccccc1F)C2 (racemic) [Example 9]
12	CC1COc2cc(F)cnc2C(=O)N1C1CC2(C1)CN(S(=O)(=O)c1ccccc1F)C2 (racemic) [Example 10]
24	Cc1ccc2c(n1)C(=O)N(C1CC3(C1)CN(S(=O)(=O)c1ccccc1F)C3)C(C)CO2 (racemic) [Example 14]
7	Cc1cnc2c(c1)OCC(C)N(C1CC3(C1)CN(S(=O)(=O)c1ccccc1F)C3)C2=O (racemic) [Example 15]
20	Cc1ccnc2c1OCC(C)N(C1CC3(C1)CN(S(=O)(=O)c1ccccc1F)C3)C2=O (racemic) [Example 16]
17	CC1COc2ccnc(F)c2C(=O)N1C1CC2(C1)CN(S(=O)(=O)c1ccccc1F)C2 (racemic) [Example 20]
16	CC1COc2c(F)cncc2C(=O)N1C1CC2(C1)CN(S(=O)(=O)c1ccccc1F)C2 (racemic) [Example 21]
68	CC1COc2ccnc(C(F)(F)F)c2C(=O)N1C1CC2(C1)CN(S(=O)(=O)c1ccccc1F)C2 (racemic) [Example 23]
54	CC1COc2nccc(F)c2C(=O)N1C1CC2(C1)CN(S(=O)(=O)c1ccccc1F)C2 (racemic) [Example 25]
33	CC1COc2ncc(F)cc2C(=O)N1C1CC2(C1)CN(S(=O)(=O)c1ccccc1F)C2 (racemic) [Example 26]
23	CC1COc2nc(F)ccc2C(=O)N1C1CC2(C1)CN(S(=O)(=O)c1ccccc1F)C2 (racemic) [Example 28]
50	Cc1ccnc2c1C(=O)N(C1CC3(C1)CN(S(=O)(=O)c1ccccc1F)C3)C(C)CO2 (racemic) [Example 29]
15	Cc1cnc2c(c1)C(=O)N(C1CC3(C1)CN(S(=O)(=O)c1ccccc1F)C3)C(C)CO2 (racemic) [Example 30]
9	Cc1ccc2c(n1)OCC(C)N(C1CC3(C1)CN(S(=O)(=O)c1ccccc1F)C3)C2=O (racemic) [Example 31]
214	CC1c2ccccc2CCC(=O)N1C1CC2(C1)CN(S(=O)(=O)c1ccccc1F)C2 (racemic) [Example 45, 2-[2-(2-fluorophenyl)sulfonyl-2-azaspiro[3,3]heptan-6-yl]-1-methyl-4,5-dihydro-1H-2-benzazepin-3-one]
129	CC1c2ccccc2OCC(=O)N1C1CC2(C1)CN(S(=O)(=O)c1ccccc1F)C2 (racemic) [Example 46]

IC50 [nM]	SMILES
544	CC1c2ccccc2NCC(=O)N1C1CC2(C1)CN(S(=O)(=O)c1ccccc1F)C2 (racemic) [Example 47]
6	CC1COc2cccnc2C(=O)N1C1CC2(C1)CN(S(=O)(=O)c1ccccc1F)C2 (racemic) [Example 49]
19	CCC1COc2cccnc2C(=O)N1C1CC2(C1)CN(S(=O)(=O)c1ccccc1F)C2 (racemic) [Example 50]
8	CC1COc2ccncc2C(=O)N1C1CC2(C1)CN(S(=O)(=O)c1ccccc1F)C2 (racemic) [Example 51]
22	CCC1COc2ccncc2C(=O)N1C1CC2(C1)CN(S(=O)(=O)c1ccccc1F)C2 (racemic) [Example 52]
14	CC1COc2cnccc2C(=O)N1C1CC2(C1)CN(S(=O)(=O)c1ccccc1F)C2 (racemic) [Example 54]
33	CCC1COc2ncccc2C(=O)N1C1CC2(C1)CN(S(=O)(=O)c1ccccc1F)C2 (racemic) [Example 59]
22	CC1COc2ncccc2C(=O)N1C1CC2(C1)CN(S(=O)(=O)c1ccccc1F)C2 (racemic) [Example 63]
10	CC1COc2ccsc2C(=O)N1C1CC2(C1)CN(S(=O)(=O)c1ccccc1F)C2 (racemic) [Example 64]
27	CC1Cc2cccnc2C(=O)N1C1CC2(C1)CN(S(=O)(=O)c1ccccc1F)C2 (racemic) [Example 65]
31	CC1Cc2ncccc2C(=O)N1C1CC2(C1)CN(S(=O)(=O)c1ccccc1F)C2 (racemic) [Example 66]
77	CC1Cc2nc(C(F)(F)F)ccc2C(=O)N1C1CC2(C1)CN(S(=O)(=O)c1ccccc1F)C2 (racemic) [Example 67]
126	CC1Cc2ccccc2OC(=O)N1C1CC2(C1)CN(S(=O)(=O)c1ccccc1F)C2 (racemic) [Example 71]
841	CC1COc2ncccc2C(=O)N1C1CC2(C1)CN(S(=O)(=O)c1cccc(F)c1)C2 (racemic) [Example 72]
92	CC1COc2ncccc2C(=O)N1C1CC2(C1)CN(S(=O)(=O)c1ccccc1Cl)C2 (racemic) [Example 73]
918	COc1cccc(S(=O)(=O)N2CC3(CC(N4C(=O)c5cccnc5OCC4C)C3)C2)c1 (racemic) [Example 74]
120	COc1ccc(S(=O)(=O)N2CC3(CC(N4C(=O)c5cccnc5OCC4C)C3)C2)cc1 (racemic) [Example 75]
566	Cc1ccccc1S(=O)(=O)N1CC2(CC(N3C(=O)c4cccnc4OCC3C)C2)C1 (racemic) [Example 76]
324	Cc1cccc(S(=O)(=O)N2CC3(CC(N4C(=O)c5cccnc5OCC4C)C3)C2)c1 (racemic) [Example 77]
2330	CC1COc2ncccc2C(=O)N1C1CC2(C1)CN(S(=O)(=O)c1ccccc1C(F)(F)F)C2 (racemic) [Example 78]
295	CC1COc2ncccc2C(=O)N1C1CC2(C1)CN(S(=O)(=O)c1ccc(F)cc1)C2 (racemic) [Example 80]
670	CC1COc2ncccc2C(=O)N1C1CC2(C1)CN(S(=O)(=O)c1cccs1)C2 (racemic) [Example 81]
60	CC1CCc2cc(C(F)(F)F)cnc2C(=O)N1C1CC2(C1)CN(S(=O)(=O)c1ccccc1F)C2 (racemic) [Example 86]
